# Source: patent publication US9790219B2, “Compounds, compositions, and methods for increasing CFTR activity” (Proteostasis Therapeutics, Inc., priority 2014, dated 2017)
# Target: T1, ΔF508-CFTR (Homo sapiens, UniProt P13569, DEL508-508)
# T1 construct: Primary lung epithelial cells homozygous for the Cystic Fibrosis-causing ΔF508 mutation; endogenous in cells; host or cells: primary human lung (bronchial) epithelial cells homozygous for ΔF508, differentiated at air-liquid interface
# Assay: hBE equivalent current (Ieq) assay
# Type: cell-based
# Details: compound alone at 10 uM, relative to VX-809 at 1 uM; AUC of equivalent chloride current; primary hBE homozygous ΔF508; 24 h treatment
# Method: Primary lung epithelial cells homozygous for the Cystic Fibrosis-causing ΔF508 mutation were differentiated for a minimum of 4 weeks in an air-liquid interface on Costar 24 well HTS filter plates prior to the equivalent current (Ieq) measurements. Cells were apically mucus-washed for 30 minutes 24 h prior to treatment with compounds. The basolateral media was removed and replaced with media containing the compound of interest diluted to its final concentration from DMSO stocks. Treated cells were incubated at 37° C. and 5% CO2 for 24 hours. At the end of the treatment period, the media was changed to the Ieq experimental solution for 30 minutes before the experiment and plates are maintained in a CO2-free incubator during this period. The plates containing the cells were then placed in pre-warmed heating blocks at 36° C.±0.5 for 15 minutes before measurements are taken. The transepithelial voltage (VT) and conductance (GT) were measured using a custom 24 channel current clamp (TECC-24) with 24 well electrode manifold. The Ieq assay measurements were made following additions with standardized time periods: • 1. The baseline VT and GT values were measured for approximately 20 minutes. • 2. Benzamil was added to block ENaC for 15 minutes. • 3. Forskolin plus VX-770 were added to maximally activate ΔF508-CFTR for 27 minutes. • 4. Bumetanide was added to inhibit the NaK2Cl cotransporter and shut-off secretion of chloride.
# The activity data captured was the area under the curve (AUC) for the traces of the equivalent chloride current. The AUC was collected from the time of the forskolin/VX-770 addition until the inhibition by bumetanide addition. Correction in response to compound treatment was scored as the increase in the AUC for compound-treated samples over that of vehicle-treated samples. The results are shown below in Table 2 (++indicates activity ≧25% run at 10 uM of VX-809 at 1 uM; +indicates activity 10 to <25% run at 10 uM of VX-809 at 1 uM; ** indicates activity ≧200% of VX-809 (1 uM) with compound at 10 uM and VX-809 at 1 uM; * indicates activity 100-200% of VX-809 (1 uM) with compound at 10 uM and VX-809 at 1 uM)
# T1 sequence (P13569 with tags, fused parts or gaps DEL508-508): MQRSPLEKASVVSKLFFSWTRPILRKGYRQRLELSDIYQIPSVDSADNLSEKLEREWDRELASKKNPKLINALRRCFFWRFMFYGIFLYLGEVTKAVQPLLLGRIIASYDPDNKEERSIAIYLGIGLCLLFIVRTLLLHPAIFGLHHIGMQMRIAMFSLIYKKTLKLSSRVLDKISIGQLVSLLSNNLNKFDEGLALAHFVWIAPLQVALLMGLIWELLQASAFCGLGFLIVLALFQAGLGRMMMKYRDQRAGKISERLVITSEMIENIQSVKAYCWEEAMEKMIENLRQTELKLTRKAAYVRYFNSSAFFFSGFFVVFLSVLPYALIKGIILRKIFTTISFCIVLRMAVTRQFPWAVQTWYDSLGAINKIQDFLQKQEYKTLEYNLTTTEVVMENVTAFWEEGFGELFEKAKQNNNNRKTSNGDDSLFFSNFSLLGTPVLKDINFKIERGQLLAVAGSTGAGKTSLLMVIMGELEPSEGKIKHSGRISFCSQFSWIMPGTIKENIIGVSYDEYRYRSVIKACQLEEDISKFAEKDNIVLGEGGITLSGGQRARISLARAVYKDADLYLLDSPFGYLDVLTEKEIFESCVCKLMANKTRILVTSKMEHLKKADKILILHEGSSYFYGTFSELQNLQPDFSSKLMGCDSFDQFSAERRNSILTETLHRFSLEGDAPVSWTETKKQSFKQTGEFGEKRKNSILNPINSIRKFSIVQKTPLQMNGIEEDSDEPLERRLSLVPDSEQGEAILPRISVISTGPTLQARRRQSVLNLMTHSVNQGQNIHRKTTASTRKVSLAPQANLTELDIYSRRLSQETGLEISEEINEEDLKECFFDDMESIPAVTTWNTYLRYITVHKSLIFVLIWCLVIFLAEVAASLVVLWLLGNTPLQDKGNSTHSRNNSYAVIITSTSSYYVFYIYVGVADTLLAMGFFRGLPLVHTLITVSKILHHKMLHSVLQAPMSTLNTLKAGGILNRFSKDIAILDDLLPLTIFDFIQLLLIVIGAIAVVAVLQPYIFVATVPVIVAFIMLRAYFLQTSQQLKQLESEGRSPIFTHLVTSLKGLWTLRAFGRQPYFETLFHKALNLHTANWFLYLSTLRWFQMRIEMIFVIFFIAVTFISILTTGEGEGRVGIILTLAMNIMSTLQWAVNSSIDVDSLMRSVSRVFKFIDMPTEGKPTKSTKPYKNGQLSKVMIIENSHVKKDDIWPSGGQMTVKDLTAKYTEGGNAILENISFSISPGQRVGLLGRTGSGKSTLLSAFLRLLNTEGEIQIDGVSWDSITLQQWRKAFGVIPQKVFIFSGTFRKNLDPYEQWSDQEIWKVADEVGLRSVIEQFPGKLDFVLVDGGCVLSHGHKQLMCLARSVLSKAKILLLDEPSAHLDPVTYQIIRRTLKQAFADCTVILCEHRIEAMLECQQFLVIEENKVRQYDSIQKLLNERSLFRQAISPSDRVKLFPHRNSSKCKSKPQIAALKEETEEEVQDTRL
row,SMILES,Ieq Activity
1,"O=C(NCCc1nnc(CO)o1)c1cc(-c2ccccc2)on1 [Compound A1, N-(2-(5-(hydroxymethyl)-1,3,4-oxadiazol-2-yl)ethyl)-5-phenylisoxazole-3-carboxamide]",++ (++indicates activity ≧25% run at 10 uM of VX-809 at 1 uM)

# Same assay, conditions: compound at 10 uM together with VX-809 at 1 uM, relative to VX-809 (1 uM); AUC of equivalent chloride current; primary hBE homozygous ΔF508; 24 h treatment
row,SMILES,Ieq Activity
1,"COC(C)c1nnc(CCNC(=O)c2cc(-c3ccccc3)on2)o1 (stereo in doubt) [Compound A24-a, (R)-N-(2-(5-(1-methoxyethyl)-1,3,4-oxadiazol-2-yl)ethyl)-5-phenylisoxazole-3-carboxamide]",* (* indicates activity 100-200% of VX-809 (1 uM) with compound at 10 uM and VX-809 at 1 uM)
2,"COC(C)c1nnc(CCNC(=O)c2cc(-c3ccccc3)on2)o1 (stereo in doubt) [Compound A24-b, (S)-N-(2-(5-(1-methoxyethyl)-1,3,4-oxadiazol-2-yl)ethyl)-5-phenylisoxazole-3-carboxamide]",* (* indicates activity 100-200% of VX-809 (1 uM) with compound at 10 uM and VX-809 at 1 uM)
3,"O=C(NCCc1nnc(CO)o1)c1cc(-c2ccccc2)on1 [Compound A1, N-(2-(5-(hydroxymethyl)-1,3,4-oxadiazol-2-yl)ethyl)-5-phenylisoxazole-3-carboxamide]",** (** indicates activity ≧200% of VX-809 (1 uM) with compound at 10 uM and VX-809 at 1 uM)
4,"O=C(NCCc1nnc(CBr)s1)c1cc(-c2ccccc2)on1 [Compound A3, N-(2-(5-(bromomethyl)-1,3,4-thiadiazol-2-yl)ethyl)-5-phenylisoxazole-3-carboxamide]",** (** indicates activity ≧200% of VX-809 (1 uM) with compound at 10 uM and VX-809 at 1 uM)
5,"COCc1nnc(CCNC(=O)c2cc(-c3ccccc3)on2)s1 [Compound A4, N-(2-(5-(methoxymethyl)-1,3,4-thiadiazol-2-yl)ethyl)-5-phenylisoxazole-3-carboxamide]",** (** indicates activity ≧200% of VX-809 (1 uM) with compound at 10 uM and VX-809 at 1 uM)
6,"COCc1nnc(CCNC(=O)c2cc(-c3ccccc3)on2)o1 [Compound A5, N-(2-(5-(methoxymethyl)-1,3,4-oxadiazol-2-yl)ethyl)-5-phenylisoxazole-3-carboxamide]",** (** indicates activity ≧200% of VX-809 (1 uM) with compound at 10 uM and VX-809 at 1 uM)
7,"Cc1nnc(CCCNC(=O)c2cc(-c3ccccc3)on2)s1 [Compound A6, N-(3-(5-methyl-1,3,4-thiadiazol-2-yl)propyl)-5-phenylisoxazole-3-carboxamide]",** (** indicates activity ≧200% of VX-809 (1 uM) with compound at 10 uM and VX-809 at 1 uM)
8,"[N-]=[N+]=NCc1nnc(CCNC(=O)c2cc(-c3ccccc3)on2)s1 [Compound A7, N-(2-(5-(azidomethyl)-1,3,4-thiadiazol-2-yl)ethyl)-5-phenylisoxazole-3-carboxamide]",** (** indicates activity ≧200% of VX-809 (1 uM) with compound at 10 uM and VX-809 at 1 uM)
9,"CC(C)c1nnc(CCNC(=O)c2cc(-c3ccccc3)on2)o1 [Compound A8, N-(2-(5-isopropyl-1,3,4-oxadiazol-2-yl)ethyl)-5-phenylisoxazole-3-carboxamide]",** (** indicates activity ≧200% of VX-809 (1 uM) with compound at 10 uM and VX-809 at 1 uM)
10,"CC(C)(O)c1nnc(CCNC(=O)c2cc(-c3ccccc3)on2)s1 [Compound A9, N-(2-(5-(2-hydroxypropan-2-yl)-1,3,4-thiadiazol-2-yl)ethyl)-5-phenylisoxazole-3-carboxamide]",** (** indicates activity ≧200% of VX-809 (1 uM) with compound at 10 uM and VX-809 at 1 uM)
11,"CC(C)(O)c1nnc(CCNC(=O)c2cc(-c3ccccc3)on2)o1 [Compound A10, N-(2-(5-(2-hydroxypropan-2-yl)-1,3,4-oxadiazol-2-yl)ethyl)-5-phenylisoxazole-3-carboxamide]",** (** indicates activity ≧200% of VX-809 (1 uM) with compound at 10 uM and VX-809 at 1 uM)
12,"O=C(NCCc1nnc(CO)s1)c1noc(-c2ccccc2)c1F [Compound A11, 4-fluoro-N-(2-(5-(hydroxymethyl)-1,3,4-thiadiazol-2-yl)ethyl)-5-phenylisoxazole-3-carboxamide]",* (* indicates activity 100-200% of VX-809 (1 uM) with compound at 10 uM and VX-809 at 1 uM)
13,"O=C(NCCc1nnc(CO)s1)c1noc(-c2ccc(F)cc2)c1F [Compound A12, 4-fluoro-5-(4-fluorophenyl)-N-(2-(5-(hydroxymethyl)-1,3,4-thiadiazol-2-yl)ethyl)isoxazole-3-carboxamide]",* (* indicates activity 100-200% of VX-809 (1 uM) with compound at 10 uM and VX-809 at 1 uM)
14,"C[C@@H](O)c1nnc(CCNC(=O)c2cc(-c3ccccc3)on2)s1 [Compound A13, (R)-N-(2-(5-(1-hydroxyethyl)-1,3,4-thiadiazol-2-yl)ethyl)-5-phenylisoxazole-3-carboxamide]",** (** indicates activity ≧200% of VX-809 (1 uM) with compound at 10 uM and VX-809 at 1 uM)
15,"C[C@@H](O)c1nnc(CCNC(=O)c2cc(-c3ccccc3)on2)o1 [Compound A14, (R)-N-(2-(5-(1-hydroxyethyl)-1,3,4-oxadiazol-2-yl)ethyl)-5-phenylisoxazole-3-carboxamide]",* (* indicates activity 100-200% of VX-809 (1 uM) with compound at 10 uM and VX-809 at 1 uM)
16,"O=C(NCCc1nnc(COC(F)(F)F)o1)c1cc(-c2ccccc2)on1 [Compound A15, 5-phenyl-N-(2-(5-((trifluoromethoxy)methyl)-1,3,4-oxadiazol-2-yl)ethyl)isoxazole-3-carboxamide]",* (* indicates activity 100-200% of VX-809 (1 uM) with compound at 10 uM and VX-809 at 1 uM)
17,"O=C(NCCc1nnc(COC(F)(F)F)s1)c1cc(-c2ccccc2)on1 [Compound A16, 5-phenyl-N-(2-(5-((trifluoromethoxy)methyl)-1,3,4-thiadiazol-2-yl)ethyl)isoxazole-3-carboxamide]",* (* indicates activity 100-200% of VX-809 (1 uM) with compound at 10 uM and VX-809 at 1 uM)
18,"O=C(NCCc1nnc(C(O)C(F)(F)F)s1)c1cc(-c2ccccc2)on1 (centres unmarked) [Compound A23, 5-phenyl-N-(2-(5-(2,2,2-trifluoro-1-hydroxyethyl)-1,3,4-thiadiazol-2-yl)ethyl)isoxazole-3-carboxamide]",** (** indicates activity ≧200% of VX-809 (1 uM) with compound at 10 uM and VX-809 at 1 uM)
19,"CO[C@@H](C)c1nnc(CCNC(=O)c2cc(-c3ccccc3)on2)s1 [Compound A25-a, (S)-N-(2-(5-(1-methoxyethyl)-1,3,4-thiadiazol-2-yl)ethyl)-5-phenylisoxazole-3-carboxamide]",** (** indicates activity ≧200% of VX-809 (1 uM) with compound at 10 uM and VX-809 at 1 uM)
20,"CO[C@H](C)c1nnc(CCNC(=O)c2cc(-c3ccccc3)on2)s1 [Compound A25-b, (R)-N-(2-(5-(1-methoxyethyl)-1,3,4-thiadiazol-2-yl)ethyl)-5-phenylisoxazole-3-carboxamide]",** (** indicates activity ≧200% of VX-809 (1 uM) with compound at 10 uM and VX-809 at 1 uM)

# Target: T1, ΔF508-CFTR
# Assay: Ussing measurements
# Type: cell-based
# Details: compound alone at 10 uM, relative to VX-809 at 1 uM; CFTRinh-172 inhibitable short-circuit current; primary hBE homozygous ΔF508; 24 h treatment
# Method: As discussed above, Ussing measurements can be used to measure CFTR activity. In this method, primary lung epithelial cells (hBEs) homozygous for the Cystic Fibrosis-causing ΔF508 mutation are differentiated for a minimum of 4 weeks in an air-liquid interface on SnapWell filter plates prior to the Ussing measurements. Cells are apically mucus-washed for 30 minutes prior to treatment with compounds. The basolateral media is removed and replaced with media containing the compound of interest diluted to its final concentration from DMSO stocks. Treated cells are incubated at 37° C. and 5% CO2 for 24 hours. At the end of the treatment period, the cells on filters are transferred to the Ussing chamber and equilibrated for 30 minutes. The short-circuit current is measured in voltage clamp-mode (Vhold=0 mV), and the entire assay is conducted at a temperature of 36° C.-36.5° C. Once the voltages stabilized, the chambers are clamped, and data is recorded by pulse readings every 5 seconds. Following baseline current stabilization, the following additions can be applied and the changes in current and resistance of the cells can be monitored: • 1. Benzamil to the apical chamber to inhibit ENaC sodium channel. • 2. Forskolin to both chambers to activate ΔF508-CFTR by phosphorylation. • 3. Genistein to both chambers to potentiate ΔF508-CFTR channel opening. • 4. CFTRinh-172 to the apical chamber to inhibit ΔF508-CFTR Cl-conductance.
# The inhibitable current (that current that is blocked by CFTRinh-172) is measured as the specific activity of the ΔF508-CFTR channel, and increases in response to compound in this activity over that observed in vehicle-treated samples are identified as the correction of ΔF508-CFTR function imparted by the compound tested.
row,SMILES,Ussing
1,"O=C(NCCc1nnc(CO)o1)c1cc(-c2ccccc2)on1 [Compound A1, N-(2-(5-(hydroxymethyl)-1,3,4-oxadiazol-2-yl)ethyl)-5-phenylisoxazole-3-carboxamide]",++ (++indicates activity ≧25% run at 10 uM of VX-809 at 1 uM)

# Same assay, conditions: compound at 10 uM together with VX-809 at 1 uM, relative to VX-809 (1 uM); CFTRinh-172 inhibitable short-circuit current; primary hBE homozygous ΔF508; 24 h treatment
row,SMILES,Ussing
1,"O=C(NCCc1nnc(CO)o1)c1cc(-c2ccccc2)on1 [Compound A1, N-(2-(5-(hydroxymethyl)-1,3,4-oxadiazol-2-yl)ethyl)-5-phenylisoxazole-3-carboxamide]",** (** indicates activity ≧200% of VX-809 (1 uM) with compound at 10 uM and VX-809 at 1 uM)
